# Laboratory results: patent publication US20240117005A1, “NOVEL BICYCLIC PEPTIDES” (THE COUNCIL OF THE QUEENSLAND INSTITUTE OF MEDICAL RESEARCH, priority 2021, published 2024)
# Entries after “also recorded” stand apart in the source; their conditions may differ.
# What was measured:
# MDA-MB-231 cells = assay: WST-1 cell proliferation assay, MDA-MB-231; type: cell-based, human; settings: for inhibition of proliferation: MDA-MB-231, WST-1, 72 hours
# Procedure: MDA-MB-231 cells were seeded at 4×10^3 cells/well into a 96-well flat bottom tissue culture plate in a final volume of 100 ul and left to adhere for 24 hours at 37° C. and 5% CO2. Cells were then treated with inhibitors for 72 hours at a final concentration of 200, 100, 50, 25, 12.5 or 6.25 μM. Following inhibition, media was removed and replaced with 100 μL/well of WST-1 cell proliferation reagent (Sigma-Aldrich, Cat# 11644807001) at 1:10 final dilution. Absorbance was recorded at 450 nm at 1, 2, 3, and 4 hour incubation periods using a microplate spectrophotometer (with 30 sec mix time). Data represent a single independent experiment performed in triplicate, results are graphed as mean +/− standard error (SE).
# (A) CT26, 4T1 or MDA-MB-231 Cells were treated with inhibitors for 72 hours. Following inhibition, media was removed and replaced with WST-1 cell proliferation reagent. Absorbance was recorded at 450 nm after 1 hour. Data represent a single independent experiment performed in triplicate. Results are graphed as mean +/− standard error (SE). B) MDA-MB-231 or CT26 cancer cells were treated with vehicle control, DL-2-Batch 1 (original stock), DL-2-Batch 2 (current stock), DL-2-TBAB or linear PDL1. Cells were permeabilised and were probed with the DUOLINK ligation assay. Cover slips were mounted on glass microscope slides with ProLong nucblue glass Antifade reagent (Life Technologies). PDL1Ac and IMPα1 DUOLINK Digital images were analysed using ImageJ software (ImageJ, NIH, Bethesda, MD, USA) and graphs represent the mean DOT Fluorescent Intensity in the nucleus or the cytoplasm compartments with significant differences calculated as per one-way ANOVA comparison. (C) MDA-MB-231 or CT26 cancer cells were treated with vehicle control, DL-2-Batch 1 (Original stock), DL-2-Batch 2 (current stock), DL-2-TBAB or linear PDL1. Cells were permeabilised and were probed with the DUOLINK ligation assay. Cover slips were mounted on glass microscope slides with ProLong nucblue glass Antifade reagent (Life Technologies). PDL1-unmodified and IMPα1 DUOLINK digital images were analysed using ImageJ software (ImageJ, NIH, Bethesda, MD, USA) and graphs represent the mean DOT fluorescent intensity in the nucleus or the cytoplasm compartments with significant differences calculated as per one-way ANOVA comparison.
# 4T1, CT26 or MDA-MB-231 cancer cell lines were treated with DL-2 or DL-2-D bicyclic inhibitors for 72 hours. Following inhibition, media was removed and replaced with WST-1 cell proliferation reagent. Absorbance was recorded at 450 nm after 1 hour. Data represent a single independent experiment performed in triplicate; results are graphed as mean +/− standard error (SE).
# Cells weretreated with inhibitors for 48 hours. Following inhibition, media was removed and replaced with WST-1 cell proliferation reagent. Absorbance was recorded at 450 nm after 1 hour.
# PDL1-PTM1 and IMPα1 = biological target: T1, PDL1-PTM1 and IMPα1 (Homo sapiens, UniProt P52292); assay: Importin-α pathway screening assay (PCC co-localisation); type: cell-based
# T1 construct: endogenous in cells; host or cells: MDA-MB-231
# Procedure: MDA-MB-231 cells were treated with DL-2 for 4 to 96 hours or control peptide scramble and were permeabilized probed a mouse anti-IMPα1, rabbit anti-PDL1 and visualized with a donkey anti-rabbit secondary antibody conjugated to Alexa Fluor 647 or a donkey anti-mouse secondary antibody conjugated to Alexa Fluor 568. Cover slips were mounted on glass microscope slides with Prolong nucleus glass Antifade reagent (Life Technologies). PDL1 and IMPα1 digital images were analyzed using ImageJ software (ImageJ, NIH, Bethesda, MD, USA) to determine the mean fluorescent intensity (mean FI). Graphs represent the mean FI of IMPα1. Graphs also depict the PCC of PDL1/IMPα1 using ImageJ software with automatic thresholding and manual selection of regions of interest (ROIs) specific for cell nuclei to calculate the Pearson's co-efficient correlation (PCC) for each pair of antibodies. PCC values range from: −1=inverse of co-localization.
smiles,measurement,setting,value
CCCCCCCCCCCCCC(=O)NC(C)C(=O)NC1CSCc2cc3cc(c2)CSC[C@H](NC(=O)[C@H](Cc2ccccc2)NC(=O)[C@H](C(C)CC)NC(=O)[C@H](Cc2ccccc2)NC(=O)[C@H]([C@@H](C)O)NC(=O)C(CC(C)C)NC1=O)C(=O)N[C@@H](CCCNC(C)=N)C(=O)N[C@@H](CC(C)C)C(=O)N[C@@H](CCCNC(=N)N)C(=O)N[C@@H](CCCCN)C(=O)NCC(=O)N[C@@H](CCCNC(=N)N)C(=O)NC(C(=O)N[C@@H](CCSC)C(=O)NC(CCSC)C(=O)N[C@@H](CC(=O)O)C(=O)NC(C(=O)N[C@@H](CCCCN)C(=O)NC(CCCCN)C(=O)O)C(C)C)CSC3 (mixture of isomers) [DL-2],inhibition of proliferation,MDA-MB-231 cells,able to inhibit proliferation; also recorded: significantly inhibit the proliferation
same,inhibition of proliferation,MDA-MB-231 cells; listed as DL-2-TBMB,able to effectively inhibit the proliferation
same,potency of proliferation inhibition relative to DL-1,"MDA-MB-231 cells; MDA-MB-231, higher potency than DL-1",2-3 fold
same,nuclear expression of IMPα1,PDL1-PTM1 and IMPα1; MDA-MB-231,No significant effect
same,PCC or degree of co-localization of PDL1-PTM1 and IMPα1,"PDL1-PTM1 and IMPα1; MDA-MB-231, up to 96 hours",significantly impair
